HPMA copolymer = not defined here
How the values were obtained:
HUVEC = HUVEC cell proliferation assay; type: cell-based, human; conditions: for IC50: 48 hours incubation, Paclitaxel-equivalent, read-out: IC50, proliferation of HUVECs
Protocol: Human Umbilical vain endothelial cells (HUVEC) were plated onto 24-well plate (1×10^4 cells/well) in growth factors reduced media, (EBM-2, Cambrex, USA) supplemented with 5% Fetal Bovine Serum (FBS). Following 24 hours of incubation (37° C.; 5% CO2) medium was replaced with EGM-2 (Cambrex, USA). PC3 cells were plated onto 96 well plate (2×10^3 cells/well) in DMEM supplemented with 5% FBS and incubated for 24 hours (37° C.; 5% CO2). Following 24 hours of incubation medium was replaced with DMEM containing 10% FBS. […] Control cells were grown with or without growth factors. After incubation HUVEC and PC3 were counted by Coulter Counter or by XTT respectively.

[1] = tested on: human prostate cell line PC3; assay: PC3 cell proliferation assay (XTT); type: cell-based
Protocol: Human Umbilical vain endothelial cells (HUVEC) were plated onto 24-well plate (1×10^4 cells/well) in growth factors reduced media, (EBM-2, Cambrex, USA) supplemented with 5% Fetal Bovine Serum (FBS). Following 24 hours of incubation (37° C.; 5% CO2) medium was replaced with EGM-2 (Cambrex, USA). PC3 cells were plated onto 96 well plate (2×10^3 cells/well) in DMEM supplemented with 5% FBS and incubated for 24 hours (37° C.; 5% CO2). Following 24 hours of incubation medium was replaced with DMEM containing 10% FBS. Cells were challenged with a combination of paclitaxel and ALN, a combination of Paclitaxel-FK and ALN, with each drug alone, and with […] (SEQ ID NO: 12), at serial concentrations for 72 hours. Control cells were grown with or without growth factors. After incubation HUVEC and PC3 were counted by Coulter Counter or by XTT respectively.

[2] = tested on: DA3 murine mammary cancer cells; assay: Antitumor activity in vivo, mCherry-labeled DA3 tumors in the tibia; design: species or system Balb/c female mice; conditions: 9 days of treatment
Protocol: 9 Balb/c female mice (n=3 per group) were injected intra tibia with 5×10^5 mCherry-labeled DA3 murine mammary cancer cells. […] (SEQ ID NO: 12) or with vehicle (1:1:8 cremophor EL:ethanol:saline). Therapy was initiated 10 days after tumor cells injection. Tumor progression was monitored by CRI™ Maestro non-invasive intravital imaging system. At termination, tibias were weighed and analyzed. Data is expressed as mean±standard error of the mean (s.e.m.).
Balb/c female mice bearing mCherry-labeled DA3 tumors in the tibia were treated with free and conjugated ALN and PTX (1:1.6, 1.25 mg/kg ALN and 2 mg/kg PTX, every day). Tumor growth rates were measured and monitored by mCherry fluorescence signal using CRI™ Maestro non-invasive intravital imaging system.

NCCCC(O)(P(=O)(O)O)P(=O)(O)O [ALN, (4-amino-1-hydroxybutylidene)bisphosphonic acid]
concentration at which proliferation of HUVEC was inhibited (only the highest dose tested) (HUVEC; ALN alone): 6.25 µM | additional effect on proliferation of HUVEC when combined with Paclitaxel or Paclitaxel-FK (HUVEC; tested concentrations 10 μM-0.001 nM): no additional effect | effect on the proliferation of PC3 cells ([1]; concentrations tested 0.01 nM-10 μM, alone or combined with PTX or PTX-FK): no effect

CC(=O)O[C@H]1C(=O)[C@@]2(C)[C@H]([C@H](OC(=O)c3ccccc3)[C@]3(O)C[C@H](OC(=O)[C@H](O)[C@@H](NC(=O)c4ccccc4)c4ccccc4)C(C)=C1C3(C)C)[C@]1(OC(C)=O)CO[C@@H]1C[C@@H]2O [PTX, paclitaxel]
IC50 ([1]; Homo sapiens, PC-3, 72 hours, PTX alone, read-out: IC50, proliferation of PC3 cells): 1000 nM | antitumor effect (in words) [2]: no therapeutic effect | antitumor effect (in words) ([2]; listed as Free PTX): no antitumor effect | antitumor effect (in words) ([2]; listed as free PTX): unaffected

HPMA copolymer-GGFK-PTX conjugate: cathepsin B-enzymatically cleavable HPMA copolymer conjugate of paclitaxel ({HPMA copolymer}-GGFK-paclitaxel; reading uncertain; also: conjugated to HPMA copolymer, conjugated to paclitaxel (PTX))
IC50 (HUVEC): ~100 nM

HPMA copolymer-GGGG-PTX conjugate ({HPMA copolymer}-GGGG-paclitaxel; reading uncertain; also: conjugated to HPMA copolymer, conjugated to paclitaxel (PTX))
concentration inhibiting HUVEC proliferation relative to cathepsin B cleavable HPMA-GGFK-PTX conjugate (HUVEC; 48 hours): 2 logs | IC50 (HUVEC): ~10000 nM
